According to ChEMBL document CHEMBL3885861, “Open TG-GATES”:

Species: Rattus norvegicus
Assay: Open TG-GATES - Regimen: Daily Repeat
Format: toxicity, organism-based, Sprague-Dawley
Set-up: regimen Daily Repeat, gender Male, age 6 weeks
Conditions: in vivo, po, 0 mg/kg, route gavage, dose level Control; for APTT / Bas / Eos / Fbg / Hb / Ht / Lym / MCH / MCHC / MCV / Mono / Neu / PT / Plat / RBC / Ret / WBC: tissue Blood; for KIDNEY_L / KIDNEY_R / KIDNEY_TOTAL: tissue Kidney; for LIVER: tissue Liver; for A/G / ALP / ALT / AST / BUN / CRE / Ca / Cl / DBIL / GLC / IP / K / LDH / Na / PL / RALB / TBIL / TC / TG / TP / gamma-GTP: tissue Plasma

CCN1CCCC1CNC(=O)c1cc(S(N)(=O)=O)ccc1OC (configuration not stated) [SULPIRIDE]
TERMINAL_BW (72 h, time 3 day): 237.8 g | APTT (72 h, time 3 day): 16.8 s | Bas (72 h, time 3 day): 0% | Eos (72 h, time 3 day): 1% | Fbg (72 h, time 3 day): 286.8 mg/dL | Hb (72 h, time 3 day): 13.4 g/dL | Ht (72 h, time 3 day): 41.1% | Lym (72 h, time 3 day): 81.6% | MCH (72 h, time 3 day): 20.7 pg | MCHC (72 h, time 3 day): 32.7% | MCV (72 h, time 3 day): 63.2 fL | Mono (72 h, time 3 day): 2.8% | Neu (72 h, time 3 day): 14% | PT (72 h, time 3 day): 12.9 s | Plat (72 h, time 3 day): 117.1 x10_4/uL | RBC (72 h, time 3 day): 650.4 x10_4/ul | Ret (72 h, time 3 day): 6.9% | WBC (72 h, time 3 day): 82.7 x10_2/uL | KIDNEY_L (72 h, time 3 day): 1.1 g | KIDNEY_R (72 h, time 3 day): 1 g | KIDNEY_TOTAL (72 h, time 3 day): 2.1 g | LIVER (72 h, time 3 day): 11.3 g | A/G (72 h, time 3 day): 0.9 | ALP (72 h, time 3 day): 1602.4 IU/L | ALT (72 h, time 3 day): 44.8 IU/L | AST (72 h, time 3 day): 67.2 IU/L | BUN (72 h, time 3 day): 15.8 mg/dL | CRE (72 h, time 3 day): 0.2 mg/dL | Ca (72 h, time 3 day): 11.1 mg/dL | Cl (72 h, time 3 day): 104.4 meq/L | DBIL (72 h, time 3 day): 0.012 mg/dL | GLC (72 h, time 3 day): 188.8 mg/dL | IP (72 h, time 3 day): 7.3 mg/dL | K (72 h, time 3 day): 4.3 meq/L | LDH (72 h, time 3 day): 73.8 IU/L | Na (72 h, time 3 day): 140.2 meq/L | PL (72 h, time 3 day): 153.2 mg/dL | RALB (72 h, time 3 day): 2.7 g/dL | TBIL (72 h, time 3 day): 0.054 mg/dL | TC (72 h, time 3 day): 79.6 mg/dL | TG (72 h, time 3 day): 108.6 mg/dL | TP (72 h, time 3 day): 5.7 g/dL | gamma-GTP (72 h, time 3 day): 1 IU/L | TERMINAL_BW ([…], time 7 day): 264.7 g | TERMINAL_BW ([…], time 14 day): 315.8 g | TERMINAL_BW ([…], time 28 day): 375.6 g | APTT ([…], time 7 day): 16.6 s | Bas ([…], time 7 day): 0.4% | Eos ([…], time 7 day): 1% | Fbg ([…], time 7 day): 286.6 mg/dL | Hb ([…], time 7 day): 13.9 g/dL | Ht ([…], time 7 day): 42% | Lym ([…], time 7 day): 82% | MCH ([…], time 7 day): 20.7 pg | MCHC ([…], time 7 day): 33.2% | MCV ([…], time 7 day): 62.5 fL | Mono ([…], time 7 day): 2.4% | Neu ([…], time 7 day): 14% | PT ([…], time 7 day): 12.8 s | Plat ([…], time 7 day): 131 x10_4/uL | RBC ([…], time 7 day): 672.6 x10_4/ul | Ret ([…], time 7 day): 5.3% | WBC ([…], time 7 day): 110.2 x10_2/uL | APTT ([…], time 14 day): 17.2 s | Bas ([…], time 14 day): 0.4% | Eos ([…], time 14 day): 0.8% | Fbg ([…], time 14 day): 289 mg/dL | Hb ([…], time 14 day): 14.6 g/dL | Ht ([…], time 14 day): 43.8% | Lym ([…], time 14 day): 77.4% | MCH ([…], time 14 day): 20 pg | MCHC ([…], time 14 day): 33.3% | MCV ([…], time 14 day): 60 fL | Mono ([…], time 14 day): 2.4% | Neu ([…], time 14 day): 18.6% | PT ([…], time 14 day): 13 s | Plat ([…], time 14 day): 112.7 x10_4/uL | RBC ([…], time 14 day): 731.4 x10_4/ul | Ret ([…], time 14 day): 3.9% | WBC ([…], time 14 day): 115 x10_2/uL | APTT ([…], time 28 day): 19.6 s | Bas ([…], time 28 day): 0% | Eos ([…], time 28 day): 1.2% | Fbg ([…], time 28 day): 286.6 mg/dL | Hb ([…], time 28 day): 15.8 g/dL | Ht ([…], time 28 day): 46% | Lym ([…], time 28 day): 77.4% | MCH ([…], time 28 day): 19.1 pg | MCHC ([…], time 28 day): 34.3% | MCV ([…], time 28 day): 55.6 fL | Mono ([…], time 28 day): 1.8% | Neu ([…], time 28 day): 19% | PT ([…], time 28 day): 12.9 s | Plat ([…], time 28 day): 119.5 x10_4/uL | RBC ([…], time 28 day): 827.2 x10_4/ul | Ret ([…], time 28 day): 2.4% | WBC ([…], time 28 day): 106.9 x10_2/uL | KIDNEY_L ([…], time 7 day): 1.1 g | KIDNEY_R ([…], time 7 day): 1.1 g | KIDNEY_TOTAL ([…], time 7 day): 2.2 g | KIDNEY_L ([…], time 14 day): 1.2 g | KIDNEY_R ([…], time 14 day): 1.2 g | KIDNEY_TOTAL ([…], time 14 day): 2.4 g | KIDNEY_L ([…], time 28 day): 1.2 g | KIDNEY_R ([…], time 28 day): 1.2 g | KIDNEY_TOTAL ([…], time 28 day): 2.5 g | LIVER ([…], time 7 day): 12.3 g | LIVER ([…], time 14 day): 13.1 g | LIVER ([…], time 28 day): 14.3 g | A/G ([…], time 7 day): 0.9 | ALP ([…], time 7 day): 1380.6 IU/L | ALT ([…], time 7 day): 44.2 IU/L | AST ([…], time 7 day): 64.8 IU/L | BUN ([…], time 7 day): 16 mg/dL | CRE ([…], time 7 day): 0.2 mg/dL | Ca ([…], time 7 day): 10.8 mg/dL | Cl ([…], time 7 day): 104.4 meq/L | DBIL ([…], time 7 day): 0.016 mg/dL | GLC ([…], time 7 day): 181.6 mg/dL | IP ([…], time 7 day): 7.7 mg/dL | K ([…], time 7 day): 4.5 meq/L | LDH ([…], time 7 day): 64.4 IU/L | Na ([…], time 7 day): 141.2 meq/L | PL ([…], time 7 day): 152.8 mg/dL | RALB ([…], time 7 day): 2.6 g/dL | TBIL ([…], time 7 day): 0.052 mg/dL | TC ([…], time 7 day): 76.8 mg/dL | TG ([…], time 7 day): 118 mg/dL | TP ([…], time 7 day): 5.5 g/dL | gamma-GTP ([…], time 7 day): 1 IU/L | A/G ([…], time 14 day): 0.8 | ALP ([…], time 14 day): 1582.6 IU/L | ALT ([…], time 14 day): 38.8 IU/L | AST ([…], time 14 day): 68.8 IU/L | BUN ([…], time 14 day): 17 mg/dL | CRE ([…], time 14 day): 0.2 mg/dL | Ca ([…], time 14 day): 11 mg/dL | Cl ([…], time 14 day): 103.2 meq/L | DBIL ([…], time 14 day): 0.012 mg/dL | GLC ([…], time 14 day): 193.8 mg/dL | IP ([…], time 14 day): 7.4 mg/dL | K ([…], time 14 day): 3.7 meq/L | LDH ([…], time 14 day): 67 IU/L | Na ([…], time 14 day): 141.2 meq/L | PL ([…], time 14 day): 146.2 mg/dL | RALB ([…], time 14 day): 2.6 g/dL | TBIL ([…], time 14 day): 0.056 mg/dL | TC ([…], time 14 day): 68.2 mg/dL | TG ([…], time 14 day): 133.4 mg/dL | TP ([…], time 14 day): 5.8 g/dL | gamma-GTP ([…], time 14 day): 1 IU/L | A/G ([…], time 28 day): 0.8 | ALP ([…], time 28 day): 975.6 IU/L | ALT ([…], time 28 day): 38.2 IU/L | AST ([…], time 28 day): 63.8 IU/L | BUN ([…], time 28 day): 17.2 mg/dL | CRE ([…], time 28 day): 0.3 mg/dL | Ca ([…], time 28 day): 10.5 mg/dL | Cl ([…], time 28 day): 104.8 meq/L | DBIL ([…], time 28 day): 0.012 mg/dL | GLC ([…], time 28 day): 169.2 mg/dL | IP ([…], time 28 day): 6.8 mg/dL | K ([…], time 28 day): 3.7 meq/L | LDH ([…], time 28 day): 61.8 IU/L | Na ([…], time 28 day): 143.6 meq/L | PL ([…], time 28 day): 147 mg/dL | RALB ([…], time 28 day): 2.8 g/dL | TBIL ([…], time 28 day): 0.062 mg/dL | TC ([…], time 28 day): 66.4 mg/dL | TG ([…], time 28 day): 167 mg/dL | TP ([…], time 28 day): 6.1 g/dL | gamma-GTP ([…], time 28 day): 1 IU/L
